Data as given in article PMC8426295, “Cytotoxic and radiosensitising effects of a novel thioredoxin reductase inhibitor in breast cancer” (Investigational New Drugs, 2021).

Tests used:
[1] = tested on: renal cancer lines; set-up: method as in PMID 28810535; settings: cited from earlier work
[2] = tested on: breast cancer lines; set-up: method as in PMID 31366901; settings: cited from earlier work
[3] = set-up: method as in PMID 22509926; settings: cited from earlier work
[4] = tested on: breast cancer cell lines; assay: Cell proliferation assay, stated across all cell lines; format: cell-based, human; settings: 400–600 nM, 48 h
Procedure: 1 × 10^5 cells (2 × 10^5 for T47D’s) were seeded, in triplicate, in 6-well plates and incubated overnight before being treated with IQ9 (0–5000 nM) or doxorubicin (400–600 nM) (positive control and comparator). Total cells were counted after 48 h using a haemocytometer. The total cell count in drug treatment wells was normalised as a percentage of the total cells in vehicle control wells.

[5] = target: T1, TrxR (Homo sapiens, UniProt Q16881); assay: Thioredoxin reductase activity assay (insulin reduction) on lysates of drug-treated breast cancer cells; format: cell-based; settings: 1000 nM; for inhibition of TrxR activity: 48 h
T1 sequence (Q16881 1-649): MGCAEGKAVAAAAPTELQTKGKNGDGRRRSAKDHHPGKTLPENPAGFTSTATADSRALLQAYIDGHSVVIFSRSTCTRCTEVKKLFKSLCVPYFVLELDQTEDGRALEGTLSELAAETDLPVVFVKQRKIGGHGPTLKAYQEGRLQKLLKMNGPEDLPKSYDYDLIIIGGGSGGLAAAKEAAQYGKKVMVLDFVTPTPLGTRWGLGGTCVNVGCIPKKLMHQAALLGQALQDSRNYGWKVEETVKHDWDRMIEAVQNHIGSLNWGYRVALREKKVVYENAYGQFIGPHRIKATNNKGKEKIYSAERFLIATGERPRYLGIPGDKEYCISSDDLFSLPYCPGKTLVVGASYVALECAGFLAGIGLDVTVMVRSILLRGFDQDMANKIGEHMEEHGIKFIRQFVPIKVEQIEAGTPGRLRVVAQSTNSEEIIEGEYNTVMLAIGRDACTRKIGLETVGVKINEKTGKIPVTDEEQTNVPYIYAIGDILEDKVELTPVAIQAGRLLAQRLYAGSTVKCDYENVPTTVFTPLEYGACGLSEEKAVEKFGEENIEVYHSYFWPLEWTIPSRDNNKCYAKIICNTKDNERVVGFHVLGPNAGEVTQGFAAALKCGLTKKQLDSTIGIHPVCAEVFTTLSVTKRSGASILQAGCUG
Procedure: TrxR enzyme activity was assessed using an insulin reduction assay. Briefly, 2 × 10^6 cells were seeded, in triplicate, in 75c m^2 tissue culture flasks. After 24 h, sub-confluent cells were treated with either IQ9 (0–1000 nM) or 1000 nM auranofin (as a positive control) for 4 or 48 h, then trypsinised, washed, and resuspended in M-PER™ Mammalian Protein Extraction Reagent (ThermoFisher, USA) supplemented with 1X Halt protease inhibitor and EDTA. Protein concentration was determined using the Bradford assay. 80 μg of protein lysates isolated from each treatment conditions and reaction mix (HE buffer (100 mM HEPES pH 7.2, 5 mM EDTA), 20 μM Trx, 1.7 mM insulin, 10 mM β-NADPH) were added to the 96-well plate and incubated for 1 h at 37 °C. The reaction was stopped by adding stop buffer containing 6 M guanidine hydrochloride, 50 mM Tris, and 10 mM DTNB (Sigma, UK), with a final pH of 8.0. The plate was read at room temperature using a BMG Fluostar Optima Microplate Reader at 412 nm wavelength. The TrxR activity was expressed as the percentage of control, no drug-treated.

[6] = set-up: method as in PMID 27217046; settings: clinical; cited from earlier work

Which results are given for `COc1cc(/C=C/C(=O)CC(=O)/C=C/c2ccc(O)c(OC)c2)ccc1O` [curcumin]?
SER [1]: 1.42; SER [2]: 1.38–1.78

Which clearance [3] does the source give for `Cn1c(/C=C/CO)c(CO)c2c1C(=O)C=C(N1CC1)C2=O` [EO9] here?
Its clearance is “rapid clearance”.

With `COc1cccc2c1C(=O)c1c(O)c3c(c(O)c1C2=O)C[C@@](O)(C(=O)CO)C[C@@H]3O[C@H]1C[C@H](N)[C@H](O)[C@H](C)O1` [doxorubicin] as the compound, how does the “decrease in cell number” value [4] read?
Its value is 50–70%.

Which “decrease in TrxR activity” value ([5]; 4 h, across all cell lines) does the source give for `CC(=O)OC[C@H]1O[C@@H]([S-])[C@H](OC(C)=O)[C@@H](OC(C)=O)[C@@H]1OC(C)=O.CCP(CC)CC.[Au+]` [auranofin, reference compound] here?
The value was 70–100%.

What about the “inhibition of TrxR activity” value ([5]; MDA-MB-231) of the same compound?
The value was “approximately 80%”.

And the “inhibition of TrxR activity” value ([5]; T47D, compared to control)?
Its value is 10%.

Which half-life [6] does the source give for `O=c1[nH]cc(F)c(=O)[nH]1` [5-FU, 5-fluorouracil] here?
The half-life was “less than 20 min”.
